For data set [1] the following is noted: mouse, in vivo.
Experimental: Animals were intragastrically gavaged with a bolus (2 g/kg) of either labeled ^13C2-Butyrate or non-labeled ^12C-Butyrate. The small and large intestines were then harvested 6 hours later and prepared for analysis as above. […] The ratio of the labeled to unlabeled peak areas were adjusted to incorporate natural distribution of ^13C label and expressed as percentage of ^13C incorporation into the butyrate pool in the luminal contents (Lumen) and intestinal tissue.
It was next determined whether there was a difference in the uptake and metabolism of the exogenously administered butyrate between the syngeneic and allogeneic recipients. To this end, metabolic flux analysis (MFA) assessing label incorporation of heavy 13C labeled butyrate into luminal and intestinal tissue butyrate pools was performed by utilizing GC/MS as above. Recipients of syngeneic and allogeneic transplant were treated 7 days after BMT with a bolus of either^13C-butyrate or regular ^12C-butyrate, which served as the control. The IECs and luminal contents were harvested 6 hours later and analyzed for incorporation of ^13C.
A further data set deals with SLC5A8. Briefly: Primary IECs cultured with proinflammatory mediators. The format is cell-based, mouse. Particulars: primary IECs exposed to IFN-γ and/or TNF. The protocol:
It was next explored whether the diminished concentration of butyrate observed in the intestinal tissue was from impaired uptake of butyrate following allo-BMT. To this end, the expression of the known butyrate monocarboxylate transporter (SLC5A8) and the receptor of butyrate (GPR43) was analyzed in IECs following allo-BMT (Ganapathy, V., Thangaraju, M., Prasad, P. D., Martin, P. M. & Singh, N. Transporters and receptors for short-chain fatty acids as the molecular link between colonic bacteria and the host. Curr Opin Pharmacol 13, 869-874 (2013); Furusawa, Y. et al. Commensal microbe-derived butyrate induces the differentiation of colonic regulatory T cells. Nature (2013)). […] Primary IECs were cultured with proinflammatory mediators (IFN-γ and/or TNF) and expression of the butyrate transporter SLC5A8 was analyzed.

[2] abbreviates: IECs from large intestine, allogeneic vs syngeneic recipients.

Regarding `CC[13CH2][13C](=O)[O-].[Na+]` [^13C-butyrate, Sodium butyrate-1,2-^13C2], the “13C heavy butyrate in the intestinal tissue” value in data set [1] is given as “significantly decreased”. Under setting [2], the “heavy carbon in malate” value is “significant difference” and the incorporation into succinate result is listed as “trend towards greater incorporation”. The “13C incorporation in malate” value (IECs from small and large intestines combined, allo-BMT vs syngeneic) is given as “overall increased level”.

B1: IFN-γ: proinflammatory mediator (protein, UniProt P01579 24-161, looked up)
Interferon gamma: QDPYVKEAENLKKYFNAGHSDVADNGTLFLGILKNWKEESDRKIMQSQIVSFYFKLFKNFKDDQSIQKSVETIKEDMNVKFFNSNKKKRDDFEKLTNYSVTDLNVQRKAIHELIQVMAELSPAAKTGKRKRSQMLFRG
Regarding B1, the “expression of Slc5a8” value with SLC5A8 is listed as “significantly decreased”.
